Results taken from patent US20150073159A1, “Solid State Forms Of Cabazitaxel And Processes For Preparation Thereof” (PLUS CHEMICALS SA, priority 2011, published 2015).

What was measured:
[1] = Hygroscopicity and stability test (exposure to controlled relative humidity; water content by Karl-Fischer, form by PXRD); format: physicochemical; settings: for % water content: Karl-Fischer coulometric titration; for Conversion to other forms of Cabazitaxel (in words) / Hygroscopicity (in words): normal atmospheric humidity, 60%, 80% and 100% RH
Experimental: (§1) Powder X-ray Diffraction was performed on an X-Ray powder diffractometer: PanAlytical X'pert Pro; CuKα radiation (λ=1.5418 Å); X'Celerator detector with active length 2.122 degrees 2-theta; laboratory temperature 22-25° C.; zero background sample holders. Prior to analysis, the samples were gently ground using a mortar and pestle to obtain a fine powder. The ground sample was adjusted into a cavity of the sample holder and the surface of the sample was smoothed using a cover glass.
A silicon powder internal standard was used to calibrate the peak positions and to eliminate an effect of the sample preparation. […] The internal standard powder can be mixed with a sample The PXRD diffractogram is then acquired and the current position of the aforementioned internal standard diffraction peak is determined. The difference between the current position of the diffraction and its nominal value of 28.44 degrees 2-theta is calculated. The current positions of all relevant sample peaks are then corrected using the above difference to obtain the true positions of the sample diffractions. The confidence interval for the peak positions was determined to be ±0.1 degrees 2-theta.
Scan range: 3-40 degrees 2-theta; Scan mode: continuous; Step size: 0.0167 degrees; Time per step: 42 s; Sample spin: 16 rpm; Sample holder: zero background silicon plate.
About 100 mg of a sample was placed to a cell with controlled relative humidity. The samples were exposed to 60%, 80% and 100% relative humidity, at a temperature of about room temperature, for a period of about two days. XRPD analysis and water content by Karl-Fischer coulometric titration were carried out before and after the exposure to the defined relative humidity.
Water was determined by KF Oven method (832 KF Thermoprep connected to 831 KF Coulometer). Water from the sample (50 mg of cabazitaxel) was released by nitrogen stream at 130° C. Extraction time was 10 minutes.

[2] = Polymorphic stability on storage (conversion measured by PXRD); format: physicochemical
Experimental: As used herein, and unless indicated otherwise, the term “polymorphic stability” in relation to the crystalline forms of Cabazitaxel means that there is less than 20%, 10%, 5%, 1%, 0.5% or 0.1% conversion of crystalline Cabazitaxel to any other solid state form of Cabazitaxel under the specified conditions, as measured by PXRD. In some embodiments, the conversion is 0.5%-20%, 0.5%-10% or 0.5%-5% or 0.5%-1% or 0.1%-1%, or 0.1%-0.5%.
as §1

[3] = 60% RH, about room temperature, about two days
[4] = 80% RH, about room temperature, about two days
[5] = 100% RH, about room temperature, about two days

## CO[C@H]1C(=O)[C@]2(C)[C@@H](OC)C[C@H]3OC[C@@]3(OC(C)=O)[C@H]2[C@H](OC(=O)c2ccccc2)[C@]2(O)C[C@H](OC(=O)[C@H](O)[C@@H](NC(=O)OC(C)(C)C)c3ccccc3)C(C)=C1C2(C)C [Form I, Cabazitaxel]
[1]; [3]
  Form (crystalline structure determined by PXRD): Form I
  % water content: 0.13%
[1]; [4]
  Form (crystalline structure determined by PXRD): Form I
  % water content: 0.14%
[1]; [5]
  Form (crystalline structure determined by PXRD): Form I
  % water content: 0.14%
[1]; Atmospheric RH
  Form (crystalline structure determined by PXRD): Form I
  % water content: 0.05%
[1]; about room temperature
  Conversion to other forms of Cabazitaxel (in words): does not convert to any other forms of Cabazitaxel
  Hygroscopicity (in words): low-hygroscopicity form

## CO[C@H]1C(=O)[C@]2(C)[C@@H](OC)C[C@H]3OC[C@@]3(OC(C)=O)[C@H]2[C@H](OC(=O)c2ccccc2)[C@]2(O)C[C@H](OC(=O)[C@H](O)[C@@H](NC(=O)OC(C)(C)C)c3ccccc3)C(C)=C1C2(C)C [Form II, Cabazitaxel]
[1]; [3]
  Form (crystalline structure determined by PXRD): Form II
  % water content: 0.07%
[1]; [4]
  Form (crystalline structure determined by PXRD): Form II
  % water content: 0.09%
[1]; [5]
  Form (crystalline structure determined by PXRD): Form II
  % water content: 0.11%
[1]; Atmospheric RH
  Form (crystalline structure determined by PXRD): Form II
  % water content: 0.02%
[1]; about room temperature
  Conversion to other forms of Cabazitaxel (in words): does not convert to any other forms of Cabazitaxel
  Hygroscopicity (in words): low-hygroscopicity form

## CO[C@H]1C(=O)[C@]2(C)[C@@H](OC)C[C@H]3OC[C@@]3(OC(C)=O)[C@H]2[C@H](OC(=O)c2ccccc2)[C@]2(O)C[C@H](OC(=O)[C@H](O)[C@@H](NC(=O)OC(C)(C)C)c3ccccc3)C(C)=C1C2(C)C [Form III, Cabazitaxel]
[2]; about 25° C. and 60% relative humidity
  Period of polymorphic stability: at least 6 months
[2]; about 40° C. and 75% RH
  Period of polymorphic stability: at least 6 months
[1]; [3]
  Form (crystalline structure determined by PXRD): Form III
  % water content: 0.14%
[1]; [4]
  Form (crystalline structure determined by PXRD): Form III
  % water content: 0.23%
[1]; [5]
  Form (crystalline structure determined by PXRD): Form III
  % water content: 0.19%
[1]; Atmospheric RH
  Form (crystalline structure determined by PXRD): Form III
  % water content: 0.05%
[1]; about room temperature
  Conversion to other forms of Cabazitaxel (in words): does not convert to any other solid state forms of Cabazitaxel
  Hygroscopicity (in words): low-hygroscopicity form

## CO[C@H]1C(=O)[C@]2(C)[C@@H](OC)C[C@H]3OC[C@@]3(OC(C)=O)[C@H]2[C@H](OC(=O)c2ccccc2)[C@]2(O)C[C@H](OC(=O)[C@H](O)[C@@H](NC(=O)OC(C)(C)C)c3ccccc3)C(C)=C1C2(C)C [Form IV, Cabazitaxel]
[1]; [3]
  Form (crystalline structure determined by PXRD): Form IV
  % water content: 0.07%
[1]; [4]
  Form (crystalline structure determined by PXRD): Form IV
  % water content: 0.09%
[1]; [5]
  Form (crystalline structure determined by PXRD): Form IV
  % water content: 0.09%
[1]; Atmospheric RH
  Form (crystalline structure determined by PXRD): Form IV
  % water content: 0.01%
[1]; about room temperature
  Conversion to other forms of Cabazitaxel (in words): does not convert to any other forms of Cabazitaxel
  Hygroscopicity (in words): low-hygroscopicity form

## CO[C@H]1C(=O)[C@]2(C)[C@@H](OC)C[C@H]3OC[C@@]3(OC(C)=O)[C@H]2[C@H](OC(=O)c2ccccc2)[C@]2(O)C[C@H](OC(=O)[C@H](O)[C@@H](NC(=O)OC(C)(C)C)c3ccccc3)C(C)=C1C2(C)C [Form V, Cabazitaxel]
[1]; [3]
  Form (crystalline structure determined by PXRD): Form V
  % water content: 0.21%
[1]; [4]
  Form (crystalline structure determined by PXRD): Form V
  % water content: 0.30%
[1]; [5]
  Form (crystalline structure determined by PXRD): Form V
  % water content: 0.68%
[1]; Atmospheric RH
  Form (crystalline structure determined by PXRD): Form V
  % water content: 0.08%
[1]; about room temperature
  Conversion to other forms of Cabazitaxel (in words): does not convert to any other forms of Cabazitaxel
  Hygroscopicity (in words): low—hygroscopicity form
